Series [1] deals with M. tuberculosis H37Rv. The experiment in a line: Dose-response growth inhibition (broth microdilution). The format is cell-based. The note with it: Mycobacterium tuberculosis, 168 h, M. tuberculosis H37Rv, 7 days; for MIC50: concentration that inhibits 50% of growth, read-out: MIC50; for MIC90: concentration that inhibits 90% of growth, read-out: MIC90.
Series [2] concerns M. abscessus Bamboo. The description is as above. The format is cell-based, Mycobacterium abscessus. The note with it: Mycobacteroides abscessus, 72 h, M. abscessus Bamboo, 3 days; for MIC50: read-out: MIC50; for MIC90: read-out: MIC90.
In series [3] the test system is M. avium 11. Described as above. The format is cell-based, Mycobacterium avium. The conditions noted are these: for MIC50: read-out: MIC50.
Series [4] concerns M. abscessus Bamboo. Nature of the series: Bactericidal assay (CFU, fold kill). The format is cell-based, Mycobacterium abscessus. The conditions noted are these: 10^7 CFU/mL exposed to MIC90 for 3 days, CFU vs starting inoculum.
In series [5] the test system is M. avium 11. Nature of the series: Bactericidal assay (CFU, fold kill). The format is cell-based, Mycobacterium avium. The conditions noted are these: for Fold kill at MIC90: 10^7 CFU/mL exposed to MIC90 for 4 days, CFU vs starting inoculum.
Series [6] relates to M. tuberculosis. Also on record: method as in http://www.pathogenbox.org/. The note with it: as reported by MMV, ref http://www.pathogenbox.org/; cited from earlier work.
The conditions of series [7]: rat, in vivo, cited from earlier work.
Series [8] relates to M. abscessus. The note with it: cited from earlier work.
Series [9] relates to M. avium. The note with it: cited from earlier work.
In series [10] the test system is M. abscessus Bamboo. The experiment in a line: Single point growth inhibition screening assay. The format is cell-based, Mycobacterium abscessus. The conditions noted are these: 20 μM, 3 days.
The test system of series [11] is M. avium 11. Nature of the series: Single point growth inhibition screening assay. The format is cell-based, Mycobacterium avium. The note with it: M. avium 11, 20 μM, 4 days.
Setting [12] is: Mycobacterium avium, 96 h, M. avium 11, 4 days.
[13] abbreviates: Mycobacterium avium, 96 h, M. avium 11, 4 days, read-out: MIC90.
Setting [14] is: ref Brown-Elliott et al., 2003, Cavusoglu et al., 2007, Aziz et al., 2017.

In brackets after ≈: the same amount, converted by molar mass. Several values for one entry are separate records, joined by “and”; a condition that tells them apart may be missing. Equal values may be shown once. Read-outs that look alike come from different tables or passages of the source.

As for `COc1ccc2nccc(NC(=O)C3CCN(CCc4ccc(Cl)cc4)CC3)c2n1` [MMV688844], in [1], the MIC50 was found to be 0.2 µM (≈ 0.085 µg/mL) and the MIC90 was 2.8 µM (≈ 1.19 µg/mL). Besides, in series [2], the MIC50 worked out at 4.5 µM (≈ 1.91 µg/mL) and the MIC90 was 11 µM (≈ 4.67 µg/mL). In addition, the MIC90 in series [3] (Mycobacterium avium, 11, read-out: Concentration at which 80% growth inhibition was achieved (printed in MIC90 column)) was 6 µM (≈ 2.55 µg/mL). Also, in series [3] (setting [12]), the MIC50 worked out at 2 µM (≈ 0.85 µg/mL). In addition, the MIC90 in [3] (setting [13]) is above 50 µM. For the same compound, the “Fold kill at MIC90” value in series [4] is on record as 100 fold. Also, the “Fold kill (Fold kill at MIC90)” value in series [5] (at 6 μM (80% growth inhibition), MIC90 not reached) is given as “NK^# (NK, “no kill,” i.e., CFU reduction < 10-fold at MIC90)”. For the same compound, the “Reported MIC” value in [6] is 0.4 µM. For the same compound, in [7] (iv, 1 mg/kg), the AUCinf is 0.167 µg·h/mL, the AUClast was 0.164 µg·h/mL, the C0 was 0.116 µg/mL and the Cl was 6.12 L/h/kg.

Turning to `O=C(N[C@H](Cc1ccccc1)C(=O)Nc1ccccc1N1CCOCC1)c1cccs1` [MMV688845], in [1], the MIC50 is below 0.2 µM and the MIC90 was 1.7 µM (≈ 0.74 µg/mL). Further, in [2], the MIC50 was found to be 1.5 µM (≈ 0.653 µg/mL) and the MIC90 was determined as 7 µM (≈ 3.05 µg/mL). For the same compound, the MIC50 in series [3] (setting [12]) turned out to be 0.6 µM (≈ 0.261 µg/mL). The MIC90 in [3] (setting [13]) was found to be 3 µM (≈ 1.31 µg/mL). In [4], the “Fold kill at MIC90” value is given as 10 fold. Further, the “Fold kill at MIC90” value in [5] was “NK (NK, “no kill,” i.e., CFU reduction < 10-fold at MIC90)”. In [6], the “Reported MIC” value is 1.2 µM. In addition, in [7] (iv, 1 mg/kg), the AUCinf is 0.174 µg·h/mL, the AUClast was 0.171 µg·h/mL, the C0 is 0.716 µg/mL and the Cl is 5.78 L/h/kg. In addition, in series [7] (po, 5 mg/kg), the AUClast was 0.00395 µg·h/mL and the tmax is 22.5 min. Also, in [7], the “%F” value is reported as below 1%.

For `CC(C)=CCC/C(C)=C/CNCCNC1C2CC3CC(C2)CC1C3` (centres unmarked) [SQ109], the MIC in series [8] (ref Sacksteder et al., 2012) was 4–16 mg/L and 12–48 μM; in [9] (ref Sacksteder et al., 2012), 4–16 mg/L and 12–48 μM.

In the case of `COc1nc2ccc(Br)cc2cc1[C@@H](c1ccccc1)[C@@](O)(CCN(C)C)c1cccc2ccccc12` [bedaquiline], the “Activity in primary screen (hit = equal or more than 80% growth inhibition)” value in series [10] and in series [11] was “showed activity” each time.

As to `CC[C@H]1OC(=O)[C@H](C)[C@@H](O[C@H]2C[C@@](C)(OC)[C@@H](O)[C@H](C)O2)[C@H](C)[C@@H](O[C@@H]2O[C@H](C)C[C@H](N(C)C)[C@H]2O)[C@](C)(OC)C[C@@H](C)C(=O)[C@H](C)[C@@H](O)[C@]1(C)O` [clarithromycin, reference compound], the MIC50 in [2] and in [3] (setting [12]) was below 0.2 µM each time. Besides, the MIC90 in series [2] is 0.5 µM (≈ 0.374 µg/mL); in series [3] (setting [13]), 0.6 µM (≈ 0.449 µg/mL). Further, the “Fold kill at MIC90” value is on record as “NK (NK, “no kill,” i.e., CFU reduction < 10-fold at MIC90)” in series [4] and “NK (NK, “no kill,” i.e., CFU reduction < 10-fold at MIC90)” in [5]. The “Concentration required to reduce CFU 10-fold, relative to MIC90” value was “up to 100 times” in [8] (ref Aziz et al., 2017) and “up to 64 times” in series [9] (ref Heifets et al., 1992).

As to `CC(C)/N=c1\cc2n(-c3ccc(Cl)cc3)c3ccccc3nc-2cc1Nc1ccc(Cl)cc1` [clofazimine], in series [11], the “Activity in primary screen (hit = equal or more than 80% growth inhibition)” value is given as “M. avium-specific hits”.

For the compound `C[C@]1(COc2ccc(N3CCC(Oc4ccc(OC(F)(F)F)cc4)CC3)cc2)Cn2cc([N+](=O)[O-])nc2O1` [delamanid], the “Activity in primary screen (hit = equal or more than 80% growth inhibition)” value in series [11] was “M. avium-specific hits”.

`C[C@@H](O)[C@H]1C(=O)N2C(C(=O)O)=C(SCCN=CN)C[C@H]12` [imipenem]: the MIC result in [8] (ref Lavollay et al., 2014) was “around 27 μM and ~8 mg/L”.

For `C[C@H]1COc2c(N3CCN(C)CC3)c(F)cc3c(=O)c(C(=O)O)cn1c23` [levofloxacin], the “Activity in primary screen (hit = equal or more than 80% growth inhibition)” value in series [10] and in series [11] was “showed activity” in each case.

For `CC(=O)NC[C@H]1CN(c2ccc(N3CCOCC3)c(F)c2)C(=O)O1` [linezolid], the MIC90 is 36 µM (≈ 12.1 µg/mL) in series [8] (setting [14]) and 22 µM (≈ 7.42 µg/mL) in series [9] (setting [14]).

As to `OC(c1cc(C(F)(F)F)nc2c(C(F)(F)F)cccc12)C1CCCCN1` (centres unmarked) [mefloquine], the “Activity in primary screen (hit = equal or more than 80% growth inhibition)” value in [11] is reported as “M. avium-specific hits”.

For the compound `CO[C@H]1/C=C/O[C@@]2(C)Oc3c(C)c(O)c4c(O)c(c(/C=N/N5CCN(C)CC5)c(O)c4c3C2=O)NC(=O)/C(C)=C\C=C\[C@H](C)[C@H](O)[C@@H](C)[C@@H](O)[C@@H](C)[C@H](OC(C)=O)[C@@H]1C` [rifampicin], in series [11], the “Activity in primary screen (hit = equal or more than 80% growth inhibition)” value is reported as “M. avium-specific hits”. The MIC in series [8] (ref Aziz et al., 2017) is at least 37 µM.

With `[H]/N=C(/N)N[C@H]1[C@H](O)[C@@H](O)[C@H](O[C@@H]2O[C@@H](C)[C@](O)(C=O)[C@H]2O[C@@H]2O[C@@H](CO)[C@H](O)[C@@H](O)[C@@H]2NC)[C@@H](N/C(N)=N\[H])[C@@H]1O` [streptomycin], the “Activity in primary screen (hit = equal or more than 80% growth inhibition)” value in [11] is recorded as “M. avium-specific hits”.

The values above are taken from paper PMC5559473, “Screening of TB Actives for Activity against Nontuberculous Mycobacteria Delivers High Hit Rates” (Frontiers in Microbiology, 2017).
